Assay results reported in ChEMBL document CHEMBL1201862, “PubChem BioAssay data set” (2004).
The source made the active and inactive calls.

Columns and labels:
Cytochrome P450 1A2 = target: T1, Cytochrome P450 1A2 (Homo sapiens, UniProt P05177);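 note: PubChem cytochrome P450 panel assay, CYP1A2 panel member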
T1 sequence (P05177 whole entry): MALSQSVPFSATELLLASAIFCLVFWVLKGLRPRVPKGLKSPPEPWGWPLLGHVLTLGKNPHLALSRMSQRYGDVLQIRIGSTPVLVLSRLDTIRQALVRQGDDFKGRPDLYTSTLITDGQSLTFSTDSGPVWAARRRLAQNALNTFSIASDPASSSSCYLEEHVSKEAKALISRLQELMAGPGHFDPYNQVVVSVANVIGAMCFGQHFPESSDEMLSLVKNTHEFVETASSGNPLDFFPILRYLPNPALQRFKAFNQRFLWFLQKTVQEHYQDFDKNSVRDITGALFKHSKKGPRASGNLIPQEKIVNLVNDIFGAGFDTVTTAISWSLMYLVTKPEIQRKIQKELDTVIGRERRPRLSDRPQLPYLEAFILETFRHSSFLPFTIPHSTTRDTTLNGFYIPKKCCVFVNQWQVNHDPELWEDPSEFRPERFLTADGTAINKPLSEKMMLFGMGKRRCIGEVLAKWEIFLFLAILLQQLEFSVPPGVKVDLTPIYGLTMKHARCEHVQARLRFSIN

[1] = target: Delta-type opioid receptor (Homo sapiens, UniProt P41143); test: Counterscreen for agonists of heterodimerization of the mu 1 (OPRM1) and delta 1 (OPRD1) opioid receptors: Luminescence-based cell-based high throughput dose response assay to identify agonists of OPRD1 homodimerization. [Related pubchem assays (depositor defined):AID504326, AID504355, AID504692, AID504904, AID504905]; format: functional
Sequence of Delta-type opioid receptor (P41143 whole entry): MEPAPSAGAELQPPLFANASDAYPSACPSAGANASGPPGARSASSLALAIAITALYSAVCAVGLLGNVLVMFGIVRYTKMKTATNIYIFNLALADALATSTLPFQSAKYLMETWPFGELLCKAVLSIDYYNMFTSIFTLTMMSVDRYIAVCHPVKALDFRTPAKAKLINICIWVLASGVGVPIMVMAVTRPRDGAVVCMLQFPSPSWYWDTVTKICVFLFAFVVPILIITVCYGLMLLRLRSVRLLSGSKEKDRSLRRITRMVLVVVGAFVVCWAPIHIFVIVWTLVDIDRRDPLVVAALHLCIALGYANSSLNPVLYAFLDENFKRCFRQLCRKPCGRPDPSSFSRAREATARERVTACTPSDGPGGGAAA

[2] = target: T2, Heat shock factor protein 1 (Mus musculus, UniProt P38532); test: decrease of HSF1-responsive luciferase luminescence – cell-based, NIH3T3, dose retest, confirmation (AID 2382); format: functional;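 note: NIH3T3 fibroblasts with HSF1-driven luciferase reporter stressed by proteasome inhibitor MG132; luminescence from HSF1-driven luciferase expression after 8 hours of MG132 stress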
T2 sequence (P38532 whole entry): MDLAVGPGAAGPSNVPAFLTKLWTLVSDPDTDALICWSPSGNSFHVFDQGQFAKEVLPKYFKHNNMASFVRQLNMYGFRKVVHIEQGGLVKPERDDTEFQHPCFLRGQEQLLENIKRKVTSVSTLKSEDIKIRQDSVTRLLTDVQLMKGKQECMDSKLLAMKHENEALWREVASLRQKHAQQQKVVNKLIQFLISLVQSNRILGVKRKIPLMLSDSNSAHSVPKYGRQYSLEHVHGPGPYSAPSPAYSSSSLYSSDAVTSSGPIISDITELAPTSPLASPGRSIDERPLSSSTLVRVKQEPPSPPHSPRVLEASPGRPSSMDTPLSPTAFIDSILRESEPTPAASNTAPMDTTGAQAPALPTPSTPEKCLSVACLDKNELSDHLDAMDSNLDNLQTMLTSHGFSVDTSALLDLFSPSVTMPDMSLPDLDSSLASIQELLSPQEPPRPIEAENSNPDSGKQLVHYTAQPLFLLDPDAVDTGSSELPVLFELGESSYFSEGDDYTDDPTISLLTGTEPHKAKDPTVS

[3] = viability of uninfected HEp-2 cells – cell-based, HTS, cytotoxicity control for RSV inhibitor project, dose response (AID 2410); format: functional; conditions: human respiratory syncytial virus
Mu-type opioid receptor = Mu-type opioid receptor (Homo sapiens, UniProt P35372); test: Counterscreen for agonists of heterodimerization of the mu 1 (OPRM1) and delta 1 (OPRD1) opioid receptors: Luminescence-based cell-based high throughput dose response assay to identify agonists of OPRM1 homodimerization.; format: functional;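 note: U2OS cells expressing OPRM1 and beta-arrestin as split beta-galactosidase partners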
Sequence of Mu-type opioid receptor (P35372 whole entry): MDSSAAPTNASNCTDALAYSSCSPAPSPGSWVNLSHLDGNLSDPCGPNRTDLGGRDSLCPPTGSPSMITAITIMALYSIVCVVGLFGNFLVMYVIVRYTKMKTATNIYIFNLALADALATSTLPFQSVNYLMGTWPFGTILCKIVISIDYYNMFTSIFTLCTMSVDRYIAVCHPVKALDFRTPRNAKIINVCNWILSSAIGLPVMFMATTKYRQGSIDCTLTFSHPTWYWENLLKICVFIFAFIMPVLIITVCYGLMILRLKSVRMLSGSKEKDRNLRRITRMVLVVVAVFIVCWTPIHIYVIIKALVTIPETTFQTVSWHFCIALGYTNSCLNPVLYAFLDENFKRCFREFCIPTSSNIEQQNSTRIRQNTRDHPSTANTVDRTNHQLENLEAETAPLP

[4] = target: 5-hydroxytryptamine receptor 5A (Homo sapiens, UniProt P47898); test: Counterscreen for agonists of OPRM1-OPRD1 heterodimerization: luminescence-based cell-based high throughput dose response assay to identify agonists of 5-hydroxytryptamine (serotonin) 5A receptor (HTR5A). [Related pubchem assays (depositor defined):AID504326, AID504355, AID504692, AID504904, AID504905]; format: functional
Sequence of 5-hydroxytryptamine receptor 5A (P47898 whole entry): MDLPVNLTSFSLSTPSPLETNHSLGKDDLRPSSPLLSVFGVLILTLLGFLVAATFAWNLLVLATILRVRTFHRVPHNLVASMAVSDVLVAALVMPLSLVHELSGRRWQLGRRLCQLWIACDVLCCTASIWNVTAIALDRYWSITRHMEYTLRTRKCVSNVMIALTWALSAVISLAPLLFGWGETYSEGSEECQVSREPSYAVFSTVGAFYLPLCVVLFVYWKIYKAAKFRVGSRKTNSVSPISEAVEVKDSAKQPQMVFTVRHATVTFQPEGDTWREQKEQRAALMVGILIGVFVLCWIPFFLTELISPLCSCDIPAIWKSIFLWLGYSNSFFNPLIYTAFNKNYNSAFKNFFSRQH

[5] = target: T3, Short transient receptor potential channel 4 (Mus musculus, UniProt Q9QUQ5); test: calcium entry via TRPC4 opening agents – cell-based, HEK293 TRPC4/mu-opioid, Fluo-4 calcium, dose response (AID 434937); format: functional
T3 sequence (Q9QUQ5 whole entry): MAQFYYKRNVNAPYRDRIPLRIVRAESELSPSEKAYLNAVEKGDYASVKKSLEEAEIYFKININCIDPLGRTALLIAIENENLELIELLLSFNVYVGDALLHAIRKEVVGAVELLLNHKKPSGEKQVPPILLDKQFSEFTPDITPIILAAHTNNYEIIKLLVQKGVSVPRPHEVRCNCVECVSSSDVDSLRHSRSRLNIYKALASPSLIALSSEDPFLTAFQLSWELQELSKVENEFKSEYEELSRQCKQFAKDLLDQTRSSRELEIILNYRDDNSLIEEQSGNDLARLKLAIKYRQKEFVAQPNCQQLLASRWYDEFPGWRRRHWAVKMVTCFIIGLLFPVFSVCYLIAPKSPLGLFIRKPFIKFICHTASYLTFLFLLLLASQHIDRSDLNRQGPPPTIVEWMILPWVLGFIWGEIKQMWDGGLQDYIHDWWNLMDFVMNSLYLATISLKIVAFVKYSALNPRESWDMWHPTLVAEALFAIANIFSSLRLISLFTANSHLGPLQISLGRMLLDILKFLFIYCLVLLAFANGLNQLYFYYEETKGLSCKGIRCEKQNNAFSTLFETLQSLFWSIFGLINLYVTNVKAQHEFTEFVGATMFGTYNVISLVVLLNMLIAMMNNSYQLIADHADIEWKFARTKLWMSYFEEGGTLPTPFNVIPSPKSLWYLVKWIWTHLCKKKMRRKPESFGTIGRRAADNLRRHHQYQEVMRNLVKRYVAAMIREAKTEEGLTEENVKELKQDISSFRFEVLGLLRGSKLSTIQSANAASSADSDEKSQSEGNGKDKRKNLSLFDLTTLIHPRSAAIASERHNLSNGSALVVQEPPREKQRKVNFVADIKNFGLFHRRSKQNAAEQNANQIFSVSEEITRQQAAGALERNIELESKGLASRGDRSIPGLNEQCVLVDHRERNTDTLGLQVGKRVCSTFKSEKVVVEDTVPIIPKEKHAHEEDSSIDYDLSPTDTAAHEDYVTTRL

[6] = target: T2, Heat shock factor protein 1; test: enhancement of HSF1-driven luciferase signal – cell-based, NIH3T3, luminescence, dose retest, confirmation (AID 435004); format: functional;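 note: stress induced by proteasome inhibitor MG132 added 30 min after compound; luciferase reporter driven by HSF1 response element in NIH3T3 cells; actives raise luminescence as potentiators of the MG132 stress response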
[7] = target: Beta-2 adrenergic receptor (Homo sapiens, UniProt P07550); test: ADRB2 activation measured by internalization – cell-based, FAP fluorogen, flow cytometry, cherry pick 1, dose response (AID 588763); format: functional
Sequence of Beta-2 adrenergic receptor (P07550 whole entry): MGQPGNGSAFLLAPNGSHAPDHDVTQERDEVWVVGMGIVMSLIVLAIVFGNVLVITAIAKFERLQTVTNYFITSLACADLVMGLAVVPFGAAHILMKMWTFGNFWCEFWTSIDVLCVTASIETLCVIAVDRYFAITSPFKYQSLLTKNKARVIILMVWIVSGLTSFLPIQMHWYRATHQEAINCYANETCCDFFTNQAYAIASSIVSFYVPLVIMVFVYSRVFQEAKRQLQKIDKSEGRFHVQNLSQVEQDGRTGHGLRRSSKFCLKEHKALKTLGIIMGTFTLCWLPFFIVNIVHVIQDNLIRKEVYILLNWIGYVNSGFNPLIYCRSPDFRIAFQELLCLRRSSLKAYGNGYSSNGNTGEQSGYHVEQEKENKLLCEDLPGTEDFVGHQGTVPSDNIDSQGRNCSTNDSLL

Vero [8] = test: cells; format: functional; conditions: Chlorocebus sabaeus
[9] = target: Dual specificity tyrosine-phosphorylation-regulated kinase 1A (Rattus norvegicus, UniProt Q63470); format: biochemical, Homo sapiens
[10] = target: T4, Ubiquitin-conjugating enzyme E2 N (Homo sapiens, UniProt P61088); format: functional;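 note: Dose-response confirmation in a TR-FRET assay detecting UBC13-driven polyubiquitin chain formation, inhibition measured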
T4 sequence (P61088 whole entry): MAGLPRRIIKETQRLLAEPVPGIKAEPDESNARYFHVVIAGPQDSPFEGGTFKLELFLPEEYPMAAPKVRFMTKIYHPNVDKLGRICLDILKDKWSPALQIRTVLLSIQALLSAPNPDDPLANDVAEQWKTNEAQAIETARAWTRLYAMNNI

Vero [11] = test: viability of Vero cells under compound – cytotoxicity control for flavivirus capping enzyme inhibitors (AID 588742); format: functional; conditions: Chlorocebus sabaeus
[12] = target: T5, Polyadenylate-binding protein 1 (Homo sapiens, UniProt P11940); test: MLLE domain peptide-binding blockers, IC50 – biochemical, fluorescence polarization, FITC-PAM2 peptide, dose response (AID 602259); format: functional; conditions: read-out: IC50_Mean
T5 sequence (P11940 whole entry, the tested form may be a part): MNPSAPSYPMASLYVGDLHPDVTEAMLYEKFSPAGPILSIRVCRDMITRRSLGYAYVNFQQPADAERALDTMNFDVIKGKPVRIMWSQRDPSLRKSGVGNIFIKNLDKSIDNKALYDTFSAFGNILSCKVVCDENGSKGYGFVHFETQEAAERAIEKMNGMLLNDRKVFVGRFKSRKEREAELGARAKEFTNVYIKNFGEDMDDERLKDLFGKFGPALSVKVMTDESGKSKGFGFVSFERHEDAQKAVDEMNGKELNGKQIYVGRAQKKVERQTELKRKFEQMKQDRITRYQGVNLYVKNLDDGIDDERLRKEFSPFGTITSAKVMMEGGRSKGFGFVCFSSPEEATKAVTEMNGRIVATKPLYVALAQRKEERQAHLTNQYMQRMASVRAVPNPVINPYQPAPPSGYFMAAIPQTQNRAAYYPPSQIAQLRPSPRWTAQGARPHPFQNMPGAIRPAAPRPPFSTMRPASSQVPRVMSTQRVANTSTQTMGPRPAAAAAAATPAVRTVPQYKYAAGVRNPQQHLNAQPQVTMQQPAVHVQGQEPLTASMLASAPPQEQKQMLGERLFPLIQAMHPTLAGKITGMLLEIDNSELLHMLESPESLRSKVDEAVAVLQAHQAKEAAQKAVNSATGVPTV

[13] = target: Heat shock protein HSP 90-alpha (Homo sapiens, UniProt P07900); format: functional, organism-based
[14] = target: T5, Polyadenylate-binding protein 1; test: MLLE binding blockers, Cy5 peptide tracer – biochemical, fluorescence polarization, Cy5-PAM2 peptide, secondary, miRNA deadenylation inhibitor project, dose response (AID 602260); format: functional; conditions: read-out: IC50_Mean
Escherichia coli = test: microbe, parasite or virus in culture
[15] = DRD fibroblast viability loss – cell-based, non-viral oncogenic, luminescence, dose response (AID 1934); format: functional; conditions: Homo sapiens
BJ [16] = test: growth inhibition of engineered Ras-driven BJ cells – cell-based, alamar blue fluorescence, cherrypicked samples, dose response (AID 2631); format: functional; conditions: Homo sapiens;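 note: confirmatory dose-response assay in RAS-dependent BJ fibroblasts engineered with TERT, LT and ST, with cytotoxicity read by fluorescence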
BJ [17] = test: cells; format: functional, cell-based; conditions: Homo sapiens
BJ [18] = test: BJ-TERT-LT-ST fibroblast viability loss – cell-based, RAS-independent, luminescence, dose response (AID 1935); format: functional; conditions: Homo sapiens;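 note: BJ fibroblasts immortalized with TERT plus LT and ST oncogenes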
BJ [19] = test: BJ-TERT fibroblast viability loss – cell-based, RAS-independent, luminescence, dose response (AID 1933); format: functional; conditions: Homo sapiens

In the case of `CC(C)c1ccc(NC(=O)N(CCc2nc3ccccc3[nH]2)C2CCCC2)cc1`, the AC50 (Cytochrome P450 1A2) is reported as 11.2 µM (inconclusive), the EC50 [1] is reported as > 92.4 µM (inactive) and the EC50 [2] is reported as > 195 µM (not active). For the same molecule, the CC50 [3] was 35.4 µM (active), the EC50 (Mu-type opioid receptor) was > 92.4 µM (inactive) and the EC50 [4] was > 92.4 µM (inactive).

With `CN(C)C(CNC(=O)Cc1ccc(Br)cc1)c1ccccc1` (configuration not stated) the EC50 [1] was 36.1 µM (inactive), the EC50 (Mu-type opioid receptor) was > 92.5 µM (inactive) and the EC50 [5] was 0.105 µM (active). The EC50 [4] was > 92.5 µM (inactive).

In the case of `O=C(CSc1nnc(-c2ccncc2)n1Cc1ccco1)N1c2ccccc2Sc2ccc(Cl)cc21`, the EC50 [6] is reported as 27.3 µM (active) and the EC50 [7] is reported as 0.343 µM (active).

With `Cc1cccc(Nc2cc(C)c3c(O)cccc3n2)c1C` the CC50 (Vero [8]) was > 25 µM (active), the AC50 [9] was 1.13 µM (active) and the IC50 [10] was > 20 µM (inactive).

For `COc1ccc2c3c(ccc2c1)C(O)=C(C=O)CC3`, the CC50 (Vero [11]) was > 40 µM (active), the IC50 [12] was > 66 µM (inactive) and the AC50 [13] was 2.94 µM (active). The AC50 [9] was 0.633 µM (active) and the IC50 [14] was > 66 µM (inactive).

With `COc1ccc(S(=O)(=O)N2CCC(C(N)=O)CC2)cc1` the AC50 (Escherichia coli) was 38.3 µM (active).

For `Nc1nc(CCl)nc(Nc2cccc3ccccc23)n1`, the EC50 [15] was 1.98 µM (active), the EC50 (BJ [16]) was 6.34 µM (active) and the EC50 [2] was 3.74 µM (active). The EC50 (BJ [17]) was 2.73 µM (inconclusive), the EC50 (BJ [18]) was 9.87 µM (inconclusive) and the EC50 (BJ [19]) was 0.288 µM (active).
